In patent US8648086B2, “5,6-bicyclic heteroaryl-containing urea compounds as kinase inhibitors” (Ascepion Pharmaceuticals, Inc., priority 2009, dated 2014):

Biological target: T1, c-Kit (Homo sapiens, UniProt P10721)
T1 construct: purchased KINOMEscan service (Ambit Biosciences, San Diego)
Experiment: KINOMEscan competition binding assay, c-Kit
Conditions: compound at 100 nM; lower number indicates stronger hit
Experimental: A standard competition binding assay can be used to test the ability of a compound of this invention on competing with both intended and unintended kinases in vitro. To screen a compound against a large number of human kinases, a competition binding assay with an active-site dependent binding technology was performed by KINOMEscan service (Ambit Biosciences, San Diego, Cal., USA). Three components were combined in this assay—DNA-tagged kinase, immobilized ligand, and the test compound. The ability of the test compound to compete with the immobilized ligand was measured by quantitative PCR of the DNA of the DNA tag. A number of the compounds of this invention were screened at the concentration of 100 nM by this binding assay, and the results were reported as “% Ctrl,” and the lower number indicates stronger “hit” in this matrix.

T1 sequence (P10721 26-976): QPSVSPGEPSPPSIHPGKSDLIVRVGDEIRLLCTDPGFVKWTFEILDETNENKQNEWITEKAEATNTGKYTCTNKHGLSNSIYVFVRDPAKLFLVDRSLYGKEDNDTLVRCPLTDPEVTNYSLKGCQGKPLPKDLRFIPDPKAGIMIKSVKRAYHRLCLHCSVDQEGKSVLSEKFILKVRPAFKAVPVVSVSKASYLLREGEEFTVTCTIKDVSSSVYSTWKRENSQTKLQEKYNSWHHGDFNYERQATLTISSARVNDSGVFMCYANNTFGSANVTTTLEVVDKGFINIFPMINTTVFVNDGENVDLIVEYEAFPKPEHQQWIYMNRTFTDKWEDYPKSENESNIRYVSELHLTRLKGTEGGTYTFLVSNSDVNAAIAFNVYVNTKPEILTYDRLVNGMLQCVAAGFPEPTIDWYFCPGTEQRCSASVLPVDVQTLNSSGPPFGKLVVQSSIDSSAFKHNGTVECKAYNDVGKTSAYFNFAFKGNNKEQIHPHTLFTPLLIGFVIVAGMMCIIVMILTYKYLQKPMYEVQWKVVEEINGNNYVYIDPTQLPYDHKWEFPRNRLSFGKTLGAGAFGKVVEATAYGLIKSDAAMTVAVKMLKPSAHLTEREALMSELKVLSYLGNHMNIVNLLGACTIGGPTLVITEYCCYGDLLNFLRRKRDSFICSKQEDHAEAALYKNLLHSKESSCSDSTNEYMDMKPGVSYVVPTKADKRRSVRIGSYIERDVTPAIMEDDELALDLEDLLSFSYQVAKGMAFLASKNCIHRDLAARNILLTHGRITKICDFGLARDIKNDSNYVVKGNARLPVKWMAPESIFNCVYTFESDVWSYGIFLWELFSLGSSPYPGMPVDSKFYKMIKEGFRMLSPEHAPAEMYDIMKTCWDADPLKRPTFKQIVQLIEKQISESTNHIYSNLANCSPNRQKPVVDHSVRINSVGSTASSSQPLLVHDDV

SMILES: Cl.O=C(Nc1cc(Cl)ccc1F)Nc1cccc2c1ccn2Cc1ccnc2[nH]ccc12 [Example 56, 1-(2-Fluoro-5-chlorophenyl)-3-[1-(1H-pyrrolo[2,3-b]pyridin-4-ylmethyl)-1H-indol-4-yl]urea hydrochloride]
- c-Kit % Ctrl: 3.8 % Ctrl
